pIC50: −log10 of the molar value. Read-outs that look alike come from different tables or passages of the source.
How the values were obtained:
[1] = biological target: T1, purified recombinant human Aggrecanase-1 (rAgg1) (Homo sapiens, UniProt O75173); experiment: In vitro fluorescence screen for Aggrecanase-1 inhibitors; assay type: biochemical; set-up: Agg1 % at concentration: scale not given here; settings: for pIC50: read-out: Agg1 IC50
T1 sequence (O75173 213-837): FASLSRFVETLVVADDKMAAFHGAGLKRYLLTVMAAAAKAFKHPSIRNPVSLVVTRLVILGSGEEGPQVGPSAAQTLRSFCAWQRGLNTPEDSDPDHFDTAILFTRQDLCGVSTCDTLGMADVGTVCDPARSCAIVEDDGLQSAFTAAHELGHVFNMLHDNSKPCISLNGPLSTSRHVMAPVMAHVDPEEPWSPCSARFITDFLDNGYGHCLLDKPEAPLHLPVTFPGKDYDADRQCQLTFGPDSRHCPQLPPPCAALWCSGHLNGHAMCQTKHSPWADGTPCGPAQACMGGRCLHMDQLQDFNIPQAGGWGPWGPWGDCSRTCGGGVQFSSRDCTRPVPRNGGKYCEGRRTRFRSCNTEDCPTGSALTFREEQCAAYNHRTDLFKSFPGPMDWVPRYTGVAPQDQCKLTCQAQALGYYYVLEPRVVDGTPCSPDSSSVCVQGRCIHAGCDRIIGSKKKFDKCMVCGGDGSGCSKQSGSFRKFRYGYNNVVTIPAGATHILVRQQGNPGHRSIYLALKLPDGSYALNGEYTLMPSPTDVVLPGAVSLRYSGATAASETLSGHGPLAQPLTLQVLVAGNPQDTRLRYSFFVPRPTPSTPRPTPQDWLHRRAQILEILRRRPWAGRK

[2] = biological target: T2, purified recombinant human Aggrecanase-2 (Ag2t-Phe628-Strep) (Homo sapiens, UniProt Q9UNA0); experiment: In vitro fluorescence screen for Aggrecanase-2 inhibitors; assay type: biochemical; settings: for pIC50: read-out: Agg 2 IC50; for inhibition at 11 µM: read-out: Agg 2 % at concentration
T2 construct: the form used is denoted as Ag2t-Phe628-Strep (MW=41,737)
T2 sequence (Q9UNA0 262-628): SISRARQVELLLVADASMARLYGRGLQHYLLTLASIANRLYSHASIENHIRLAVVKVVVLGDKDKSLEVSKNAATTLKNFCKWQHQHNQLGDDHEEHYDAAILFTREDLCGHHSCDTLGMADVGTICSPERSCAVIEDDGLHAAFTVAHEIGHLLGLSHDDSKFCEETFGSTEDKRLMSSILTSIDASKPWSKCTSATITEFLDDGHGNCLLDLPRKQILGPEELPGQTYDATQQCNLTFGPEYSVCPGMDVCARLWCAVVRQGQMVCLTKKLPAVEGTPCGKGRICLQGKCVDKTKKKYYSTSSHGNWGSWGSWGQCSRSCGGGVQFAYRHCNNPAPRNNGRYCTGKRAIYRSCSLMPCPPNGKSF

pIC50 ([1]; Table 2)	pIC50 ([2]; Table 2)	pIC50 ([1]; Table 3)	pIC50 ([2]; Table 3)	Structure (SMILES)	other results
5.92	5.79	–	–	O=C(O)CC[C@H](NC(=O)c1ccc(C#CC2(O)c3ccccc3-c3ccccc32)cc1)C(=O)NCc1ccccc1 [Example 12H, N-benzyl-N^2-{4-[(9-hydroxy-9H-fluoren-9-yl)ethynyl]benzoyl}-L-α-glutamine]	–
< 4.60	< 4.70	–	–	O=C(O)CC[C@H](NC(=O)c1ccc(/C=C/C(=O)c2ccccc2)cc1)C(=O)NCc1ccccc1 [Example 12I, N-benzyl-N^2-{4-[(1E)-3-oxo-3-phenylprop-1-en-1-yl]benzoyl}-L-α-glutamine]	–
~5.10	~4.66	–	–	Nc1cccc(C#Cc2ccc(C(=O)N[C@@H](CCC(=O)O)C(=O)NCc3ccccc3)cc2)c1 [Example 12J, N^2-{4-[(3-aminophenyl)ethynyl]benzoyl}-N-benzyl-L-α-glutamine]	–
~4.60	< 4.66	–	–	O=C(O)CC[C@H](NC(=O)c1ccc(C#CC(O)(c2ccccc2)c2ccccc2)cc1)C(=O)NCc1ccccc1 [Example 12K, N-benzyl-N^2-[4-(3-hydroxy-3,3-diphenylprop-1-yn-1-yl)benzoyl]-L-α-glutamine]	–
~4.66	< 4.66	–	–	COc1cccc(C#Cc2ccc(C(=O)N[C@@H](CCC(=O)O)C(=O)NCc3ccccc3)cc2)c1 [Example 12L, N-benzyl-N^2-{4-[(3-methoxyphenyl)ethynyl]benzoyl}-L-α-glutamine]	–
7.36	6.49	–	–	CCc1cccc(OCc2ccc(-c3ccc(C(=O)N[C@@H](CCC(=O)O)C(=O)NC(C)(C)Cc4ccccc4)cc3)cc2)c1 [Example 15AA, N-(1,1-dimethyl-2-phenylethyl)-N^2-({4′-[(3-ethylphenoxy)methyl]biphenyl-4-yl}carbonyl)-L-α-glutamine]	–
7.28	6.28	–	–	COc1cccc(OCc2ccc(-c3ccc(C(=O)N[C@@H](CCC(=O)O)C(=O)NC(C)(C)Cc4ccccc4)cc3)cc2)c1 [Example 15BB, N-(1,1-dimethyl-2-phenylethyl)-N^2-({4′-[(3-methoxyphenoxy)methyl]biphenyl-4-yl}carbonyl)-L-α-glutamine]	–
6.37	5.80	–	–	O=C(O)CC[C@H](NC(=O)c1ccc(-c2ccc(OCc3cccc(F)c3)cc2)cc1)C(=O)NCc1ccccc1 [Example 15I, N-benzyl-N^2-({4′-[(3-fluorobenzyl)oxy]biphenyl-4-yl}carbonyl)-L-α-glutamine]	–
6.29	~5.51	–	–	O=C(O)CC[C@H](NC(=O)c1ccc(-c2ccc(OCc3ccccc3)cc2)cc1)C(=O)NCc1ccccc1 [Example 15J, N-benzyl-N^2-{[4′-(benzyloxy)biphenyl-4-yl]carbonyl}-L-α-glutamine]	–
–	–	> 7.52	6.42	COc1cc(CNC(=O)[C@H](CCC(=O)O)NC(=O)c2ccc(-c3cccc(OCc4ccccc4)c3)cc2)cc(OC)c1OC [Example 15K, N^2-{[3′-(benzyloxy)biphenyl-4-yl]carbonyl}-N-(3,4,5-trimethoxybenzyl)-L-α-glutamine]	–
–	–	7.33	6.38	COc1cc(COc2cccc(-c3ccc(C(=O)N[C@@H](CCC(=O)O)C(=O)NCc4cc(OC)c(OC)c(OC)c4)cc3)c2)cc(OC)c1 [Example 15L, N^2-({3′-[(3,5-dimethoxybenzyl)oxy]biphenyl-4-yl}carbonyl)-N-(3,4,5-trimethoxybenzyl)-L-α-glutamine]	–
–	–	> 7.52	6.10	COc1cccc(COc2cccc(-c3ccc(C(=O)N[C@@H](CCC(=O)O)C(=O)NCc4cc(OC)c(OC)c(OC)c4)cc3)c2)c1 [Example 15M, N^2-({3′-[(3-methoxybenzyl)oxy]biphenyl-4-yl}carbonyl)-N-(3,4,5-trimethoxybenzyl)-L-α-glutamine]	–
–	–	7.04	6.99	COc1cc(COc2ccc(-c3ccc(C(=O)N[C@@H](CCC(=O)O)C(=O)NC(C)(C)Cc4ccc(F)cc4)cc3)cc2)cc(OC)c1 [Example 15N, N^2-({4′-[(3,5-dimethoxybenzyl)oxy]biphenyl-4-yl}carbonyl)-N-[2-(4-fluorophenyl)-1,1-dimethylethyl]-L-α-glutamine]	–
–	–	7.28	5.50	CC(C)(Cc1ccccc1)NC(=O)[C@H](CCC(=O)O)NC(=O)c1ccc(-c2ccc(COc3cc(C(F)(F)F)cc(C(F)(F)F)c3)cc2)cc1 [Example 15O, N^2-[(4′-{[3,5-bis(trifluoromethyl)phenoxy]methyl}biphenyl-4-yl)carbonyl]-N-(1,1-dimethyl-2-phenylethyl)-L-α-glutamine]	–
–	–	> 7.52	6.59	CC(C)(Cc1ccccc1)NC(=O)[C@H](CCC(=O)O)NC(=O)c1ccc(-c2ccc(COc3ccc4c(c3)OCO4)cc2)cc1 [Example 15P, N^2-({4′-[(1,3-benzodioxol-5-yloxy)methyl]biphenyl-4-yl}carbonyl)-N-(1,1-dimethyl-2-phenylethyl)-L-α-glutamine]	–
–	–	6.80	5.71	COc1cc(OC)cc(OCc2ccc(-c3ccc(C(=O)N[C@@H](CCC(=O)O)C(=O)NCc4cccc(C)c4)cc3)cc2)c1 [Example 15Q, N^2-({4′-[(3,5-dimethoxyphenoxy)methyl]biphenyl-4-yl}carbonyl)-N-(3-methylbenzyl)-L-α-glutamine]	–
–	–	6.25	–	COc1cc(OC)cc(OCc2cccc(-c3ccc(C(=O)N[C@@H](CCC(=O)O)C(=O)NCc4cccc(C)c4)cc3)c2)c1 [Example 15R, N^2-({3′-[(3,5-dimethoxyphenoxy)methyl]biphenyl-4-yl}carbonyl)-N-(3-methylbenzyl)-L-α-glutamine]	inhibition at 11 µM ([2]; Table 3, at 11000 (nM)): 48%
–	–	–	–	Cc1cccc(CNC(=O)[C@H](CCC(=O)O)NC(=O)c2ccc(-c3cccc(COc4cc(C(F)(F)F)cc(C(F)(F)F)c4)c3)cc2)c1 [Example 15S, N^2-[(3′-{[3,5-bis(trifluoromethyl)phenoxy]methyl}biphenyl-4-yl)carbonyl]-N-(3-methylbenzyl)-L-α-glutamine]	Agg1 % at concentration ([1]; Table 3, at 1850 (nM)): 30%; Agg 2 % at concentration ([2]; Table 3, at 33000 (nM)): 41%
–	–	–	6.22	O=C(O)CC[C@H](NC(=O)c1ccc(-c2ccc(OCc3cccc(-c4ccccc4)c3)cc2)cc1)C(=O)NCc1ccccc1 [Example 15U, N-benzyl-N^2-{[4′-(biphenyl-3-ylmethoxy)biphenyl-4-yl]carbonyl}-L-α-glutamine]	Agg1 % at concentration ([1]; Table 3, at 100 (nM)): 53%; Agg1 % at concentration ([1]; Table 3, at 1000 (nM)): 53%; inhibition at 11 µM ([2]; Table 3, at 11000 (nM)): 30%
–	–	–	6.15	COc1cccc(-c2cccc(COc3ccc(-c4ccc(C(=O)N[C@@H](CCC(=O)O)C(=O)NCc5ccccc5)cc4)cc3)c2)c1 [Example 15V, N-benzyl-N^2-({4′-[(3′-methoxybiphenyl-3-yl)methoxy]biphenyl-4-yl}carbonyl)-L-α-glutamine]	Agg1 % at concentration ([1]; Table 3, at 40 (nM)): 47% 40
–	–	–	–	O=C(O)CC[C@H](NC(=O)c1ccc(-c2ccc(OCc3ccccc3-c3ccccc3)cc2)cc1)C(=O)NCc1ccccc1 [Example 15W, N-benzyl-N^2-{[4′-(biphenyl-2-ylmethoxy)biphenyl-4-yl]carbonyl}-L-α-glutamine]	Agg1 % at concentration ([1]; Table 3, at 1900 (nM)): 56%; Agg 2 % at concentration ([2]; Table 3, at 11000 (nM)): 59%
–	–	–	–	COc1cccc(-c2ccccc2COc2ccc(-c3ccc(C(=O)N[C@@H](CCC(=O)O)C(=O)NCc4ccccc4)cc3)cc2)c1 [Example 15X, N-benzyl-N^2-({4′-[(3′-methoxybiphenyl-2-yl)methoxy]biphenyl-4-yl}carbonyl)-L-α-glutamine]	Agg1 % at concentration ([1]; Table 3, at 1900 (nM)): 46%; Agg 2 % at concentration ([2]; Table 3, at 11000 (nM)): 52%
6.66	6.08	–	–	CC(C)(Cc1ccccc1)NC(=O)[C@H](CCC(=O)O)NC(=O)c1ccc(-c2ccc(COc3cccc(C(C)(C)C)c3)cc2)cc1 [Example 15Y, N^2-({4′-[(3-tert-butylphenoxy)methyl]biphenyl-4-yl}carbonyl)-N-(1,1-dimethyl-2-phenylethyl)-L-α-glutamine]	–
5.85	5.22	–	–	CC(C)(Cc1ccccc1)NC(=O)[C@H](CCC(=O)O)NC(=O)c1ccc(-c2ccc(COc3cc(C(C)(C)C)cc(C(C)(C)C)c3)cc2)cc1 [Example 15Z, N^2-({4′-[(3,5-di-tert-butylphenoxy)methyl]biphenyl-4-yl}carbonyl)-N-(1,1-dimethyl-2-phenylethyl)-L-α-glutamine]	–

— patent US7998965B2, “Glutamate aggrecanase inhibitors” (Wyeth LLC, priority 2005, dated 2011)
